Measured values from patent US20260210939A1, “MODIFIED OLFACTORY RECEPTORS” (GIVAUDAN SA, priority 2022, published 2026).
Read-outs that look alike come from different tables or passages of the source. One block for each compound: values may come before it.

Columns and labels:
[1] = target: human class II OR identified in the library screening (Homo sapiens, UniProt Q15622)
Description: (§1) Selected ligand—OR pairs were then tested in a confirmatory test with a dose response analysis.
(§2) For selected receptors, the wild-type sequence was synthesized and cloned into pcDNA3.1 (+). Dose-response analysis with the cognate ligand was then performed for both the wild-type and the modified sequence.

[2] = target: human class II OR identified in the library screening (Homo sapiens, UniProt O76100)
Description: as §1, §2

[3] = tested on: human class II OR identified in the library screening; experiment: Confirmatory dose-response analysis of library-hit OR with cognate ligand, wild-type vs C-terminal domain SEQ ID NO: 221 (Table 17); conditions: for Fold improvement efficacy: maximal induction; for EC50: read-out: Potency, EC50 changed C-term; for Detection threshold; Fold improvement efficacy: under detection threshold;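 for all read-outs here: Wild-type receptor sequences expressed from the pcDNA3.1(+) vector and compared with the C-terminally modified receptors in dose-response tests using each receptor's cognate ligand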
Description: as §1, §2

OR7A17 and OR7C1 = experiment: Cells expressing one or both of OR7A17 and OR7C1 (C-terminal domain SEQ ID NO: 221), luciferase; assay type: cell-based, human
From the text: In order to screen for a specific odor description, some or all members of a given set of OR which was identified to be specific for a given odor description as shown in example 25 can be combined in a screening for new odorants or new odorant mixtures. The screening on the different OR can be performed sequentially or in parallel assays with the individual OR of the OR set. Additionally, some or all of the OR of the OR set specific for the odor-description can also be co-expressed in a single cell line. Thus, to screen for woody-ambery molecules, cells were either separately or simultaneously transfected with two plasmids coding for the optimized OR7A17 and OR7C1 both with the C-terminal domain of SEQ ID NO: 221. […] Cells expressing both receptors become functional sensors for the Ambery-woody odor description and detect both ligands down to low concentrations.

OR7C1 [4] = target: T1, OR7C1 (Homo sapiens, UniProt O76099, D296E/G302K/M297V/R299D/T295K/V126I); experiment: CRE-luciferase assay, HEK293T cells expressing OR7C1 (wild-type / modified C-terminus); assay type: cell-based
T1 construct: Improved functional expression of modified OR-genes containing the truncated, optimized C-terminus; expressed in transfected cells; host or cells: HEK293T stably expressing human RTP1S(V227I) and RTP2(L220R)
T1 sequence (O76099 with tags, fused parts or gaps V126I/T295K/D296E/M297V/R299D/G302K): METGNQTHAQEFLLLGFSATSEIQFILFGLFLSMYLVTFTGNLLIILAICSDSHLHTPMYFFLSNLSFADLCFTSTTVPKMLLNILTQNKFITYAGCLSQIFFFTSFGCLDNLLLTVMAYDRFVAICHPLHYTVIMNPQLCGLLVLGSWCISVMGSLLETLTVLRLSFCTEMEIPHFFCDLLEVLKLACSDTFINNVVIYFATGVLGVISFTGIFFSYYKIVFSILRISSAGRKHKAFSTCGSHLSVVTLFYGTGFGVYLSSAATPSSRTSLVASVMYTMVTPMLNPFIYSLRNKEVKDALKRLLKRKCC

OR7C1 [5] = target: T1, OR7C1; experiment: as above; assay type: cell-based; remark: listed apart in the source
From the text: To test for possible variants of the sequence […]CC (SEQ ID NO: 86) leading to similar improved functional expression, different point mutations were introduced into the first 16 amino acids of this sequence (corresponding to […], SEQ ID NO: 10) and the variants were fused after the TM7 with OR7C1. […] The test concentrations were selected to fall into the range of partial activity of the wild-type sequence.

[6] = target: human class II OR identified in the library screening (Homo sapiens, UniProt P34982)
Target sequence in this assay (P34982 whole entry, the tested form may be a part): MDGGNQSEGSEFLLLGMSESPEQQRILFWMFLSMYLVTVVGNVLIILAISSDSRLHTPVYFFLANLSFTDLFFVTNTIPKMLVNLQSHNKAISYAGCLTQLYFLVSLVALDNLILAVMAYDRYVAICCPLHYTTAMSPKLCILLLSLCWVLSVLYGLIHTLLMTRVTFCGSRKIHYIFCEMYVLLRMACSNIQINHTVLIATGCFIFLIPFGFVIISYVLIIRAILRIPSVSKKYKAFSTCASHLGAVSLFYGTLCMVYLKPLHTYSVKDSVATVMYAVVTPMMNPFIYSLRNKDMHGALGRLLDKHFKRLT
Description: as §1, §2

[7] = tested on: human class II OR identified in the library screening
Description: as §1, §2

[8] = target: human class II OR identified in the library screening (Homo sapiens, UniProt P34982); experiment: Confirmatory dose-response analysis of library-hit OR with cognate ligand, wild-type vs C-terminal domain SEQ ID NO: 221 (Table 17); conditions: read-out: Potency, EC50 changed C-term; OR1D2, modified C-terminus SEQ ID NO: 221 (SEQ ID NO: 336);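 note: Wild-type receptor sequences expressed from the pcDNA3.1(+) vector and compared with the C-terminally modified receptors in dose-response tests using each receptor's cognate ligand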
Target sequence in this assay (P34982 1-291): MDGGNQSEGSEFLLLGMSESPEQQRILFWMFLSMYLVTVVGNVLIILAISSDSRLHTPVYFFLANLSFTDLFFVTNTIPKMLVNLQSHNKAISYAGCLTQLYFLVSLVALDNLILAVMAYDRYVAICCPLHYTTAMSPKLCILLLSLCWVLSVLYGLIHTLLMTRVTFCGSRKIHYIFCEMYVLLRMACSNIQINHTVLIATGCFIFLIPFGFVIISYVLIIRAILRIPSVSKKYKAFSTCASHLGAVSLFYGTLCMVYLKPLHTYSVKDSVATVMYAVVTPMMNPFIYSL
Description: as §1, §2

[9] = target: human class II OR identified in the library screening (Homo sapiens, UniProt Q8NGC4); experiment: as above; conditions: read-out: Potency, EC50 changed C-term; OR10G3 (S73G), modified C-terminus SEQ ID NO: 221 (SEQ ID NO: 673)
Description: as §1, §2

[10] = target: human class II OR identified in the library screening (Homo sapiens, UniProt A6NM03, Y28C)
Description: as §1, §2

[11] = target: human class II OR identified in the library screening (Homo sapiens, UniProt A6NM03); experiment: Confirmatory dose-response analysis of library-hit OR with cognate ligand, wild-type vs C-terminal domain SEQ ID NO: 221 (Table 17); conditions: read-out: Potency, EC50 changed C-term; OR2AG2 (Y28C), modified C-terminus SEQ ID NO: 221 (SEQ ID NO: 379);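 note: Wild-type receptor sequences expressed from the pcDNA3.1(+) vector and compared with the C-terminally modified receptors in dose-response tests using each receptor's cognate ligand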
Description: as §1, §2

[12] = target: human class II OR identified in the library screening (Homo sapiens, UniProt A4D2G3)
Description: as §1, §2

[13] = target: human class II OR identified in the library screening (Homo sapiens, UniProt Q96R48)
Description: as §1, §2

OR2T4 [14] = target: T2, OR2T4 (Homo sapiens, UniProt Q8NH00, D328E/G331D/M330K)
T2 sequence (Q8NH00 with tags, fused parts or gaps D328E/M330K/G331D): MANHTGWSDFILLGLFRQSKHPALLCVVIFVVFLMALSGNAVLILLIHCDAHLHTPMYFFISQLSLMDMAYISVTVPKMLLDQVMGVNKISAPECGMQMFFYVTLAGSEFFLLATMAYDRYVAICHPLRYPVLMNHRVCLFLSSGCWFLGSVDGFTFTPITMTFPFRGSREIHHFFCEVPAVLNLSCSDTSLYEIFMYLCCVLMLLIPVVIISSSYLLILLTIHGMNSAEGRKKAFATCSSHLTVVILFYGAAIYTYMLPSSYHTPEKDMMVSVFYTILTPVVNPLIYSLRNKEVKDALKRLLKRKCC

OR2T4 [15] = target: T2, OR2T4; experiment: cell-based
[16] = target: human class II OR identified in the library screening (Homo sapiens, UniProt O60403)
Description: as §1, §2

[17] = target: human class II OR identified in the library screening (Homo sapiens, UniProt Q8WZ84); experiment: Confirmatory dose-response analysis of library-hit OR with cognate ligand, wild-type vs C-terminal domain SEQ ID NO: 221 (Table 17); conditions: OR8D1, wild-type sequence;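 note: Wild-type receptor sequences expressed from the pcDNA3.1(+) vector and compared with the C-terminally modified receptors in dose-response tests using each receptor's cognate ligand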
Description: as §1, §2

[18] = target: T3, human class II OR identified in the library screening (Homo sapiens, UniProt Q8NGP4)
T3 sequence (Q8NGP4 whole entry, the tested form may be a part): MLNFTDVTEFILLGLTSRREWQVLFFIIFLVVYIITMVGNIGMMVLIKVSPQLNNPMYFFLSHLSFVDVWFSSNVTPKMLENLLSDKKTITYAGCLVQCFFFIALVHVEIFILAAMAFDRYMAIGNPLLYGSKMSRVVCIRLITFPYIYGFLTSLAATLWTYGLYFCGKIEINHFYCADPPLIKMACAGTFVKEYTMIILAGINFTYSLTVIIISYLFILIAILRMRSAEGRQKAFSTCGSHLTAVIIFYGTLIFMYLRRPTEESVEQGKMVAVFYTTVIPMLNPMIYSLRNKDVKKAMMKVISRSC
Description: as §1, §2

[19] = target: T3, human class II OR identified in the library screening; experiment: Confirmatory dose-response analysis of library-hit OR with cognate ligand, wild-type vs C-terminal domain SEQ ID NO: 221 (Table 17)
Description: as §1, §2

[20] = target: human class II OR identified in the library screening (Homo sapiens, UniProt Q8NGP4); experiment: as above; conditions: read-out: Potency, EC50 changed C-term; OR5M3, modified C-terminus SEQ ID NO: 221 (SEQ ID NO: 559)
Target sequence in this assay (Q8NGP4 1-290): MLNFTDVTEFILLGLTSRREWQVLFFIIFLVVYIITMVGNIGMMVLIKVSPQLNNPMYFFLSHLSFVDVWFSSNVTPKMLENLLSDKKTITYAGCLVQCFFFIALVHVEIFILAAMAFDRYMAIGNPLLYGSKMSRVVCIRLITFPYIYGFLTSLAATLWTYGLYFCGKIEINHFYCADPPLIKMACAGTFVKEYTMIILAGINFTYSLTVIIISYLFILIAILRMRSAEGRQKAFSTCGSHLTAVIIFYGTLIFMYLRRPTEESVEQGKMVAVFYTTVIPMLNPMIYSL
Description: as §1, §2

[21] = target: human class II OR identified in the library screening (Homo sapiens, UniProt Q8NH80)
Target sequence in this assay (Q8NH80 whole entry, the tested form may be a part): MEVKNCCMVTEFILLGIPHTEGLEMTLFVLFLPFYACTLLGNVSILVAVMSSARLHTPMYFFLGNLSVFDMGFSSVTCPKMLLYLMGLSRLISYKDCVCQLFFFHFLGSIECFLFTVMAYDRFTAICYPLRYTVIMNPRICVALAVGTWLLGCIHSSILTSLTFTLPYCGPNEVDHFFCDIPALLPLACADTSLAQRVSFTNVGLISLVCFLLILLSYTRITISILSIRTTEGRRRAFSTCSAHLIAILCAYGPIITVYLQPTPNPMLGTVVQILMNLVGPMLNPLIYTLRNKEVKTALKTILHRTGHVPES
Description: as §1, §2

[22] = target: human class II OR identified in the library screening (Homo sapiens, UniProt Q8NH80); experiment: Confirmatory dose-response analysis of library-hit OR with cognate ligand, wild-type vs C-terminal domain SEQ ID NO: 221 (Table 17); conditions: read-out: Potency, EC50 changed C-term; OR10D3, modified C-terminus SEQ ID NO: 221 (SEQ ID NO: 671)
Target sequence in this assay (Q8NH80 1-290): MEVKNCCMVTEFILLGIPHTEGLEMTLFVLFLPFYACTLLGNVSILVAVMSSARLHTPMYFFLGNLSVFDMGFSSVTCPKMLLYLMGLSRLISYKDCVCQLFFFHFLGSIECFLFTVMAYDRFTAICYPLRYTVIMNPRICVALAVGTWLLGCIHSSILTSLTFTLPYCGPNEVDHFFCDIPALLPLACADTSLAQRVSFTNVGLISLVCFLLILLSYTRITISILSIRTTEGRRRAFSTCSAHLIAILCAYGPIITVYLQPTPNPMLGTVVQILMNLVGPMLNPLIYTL
Description: as §1, §2

[23] = OR8D1, modified C-terminus SEQ ID NO: 221 (SEQ ID NO: 631)
[24] = OR8D1, modified C-terminus SEQ ID NO: 221 vs wild-type
[25] = OR5M3, modified C-terminus SEQ ID NO: 221 vs wild-type

Chain of human class II OR identified in the library screening (Homo sapiens, UniProt Q8WZ84) (Q8WZ84 whole entry, the tested form may be a part): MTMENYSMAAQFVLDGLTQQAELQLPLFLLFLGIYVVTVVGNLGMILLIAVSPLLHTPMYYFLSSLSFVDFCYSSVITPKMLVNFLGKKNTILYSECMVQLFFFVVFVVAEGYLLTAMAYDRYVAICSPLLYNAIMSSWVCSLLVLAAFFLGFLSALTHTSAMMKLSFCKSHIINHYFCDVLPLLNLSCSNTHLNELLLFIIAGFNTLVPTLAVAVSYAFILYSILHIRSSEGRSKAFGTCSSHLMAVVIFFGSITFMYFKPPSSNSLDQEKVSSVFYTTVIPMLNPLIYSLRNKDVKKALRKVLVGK
Chain of human class II OR identified in the library screening (Homo sapiens, UniProt A6NM03, Y28C) (A6NM03 whole entry Y28C, the tested form may be a part): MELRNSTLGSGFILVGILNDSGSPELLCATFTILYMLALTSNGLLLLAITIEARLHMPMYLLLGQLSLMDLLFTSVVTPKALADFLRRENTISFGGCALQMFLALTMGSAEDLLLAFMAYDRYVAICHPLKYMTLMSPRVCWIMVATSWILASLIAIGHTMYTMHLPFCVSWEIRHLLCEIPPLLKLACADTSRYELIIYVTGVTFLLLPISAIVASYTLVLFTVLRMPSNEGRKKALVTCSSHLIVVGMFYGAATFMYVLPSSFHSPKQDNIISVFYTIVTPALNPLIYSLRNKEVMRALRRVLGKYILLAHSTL
Chain of human class II OR identified in the library screening (Homo sapiens, UniProt Q8NGC4) (Q8NGC4 1-291): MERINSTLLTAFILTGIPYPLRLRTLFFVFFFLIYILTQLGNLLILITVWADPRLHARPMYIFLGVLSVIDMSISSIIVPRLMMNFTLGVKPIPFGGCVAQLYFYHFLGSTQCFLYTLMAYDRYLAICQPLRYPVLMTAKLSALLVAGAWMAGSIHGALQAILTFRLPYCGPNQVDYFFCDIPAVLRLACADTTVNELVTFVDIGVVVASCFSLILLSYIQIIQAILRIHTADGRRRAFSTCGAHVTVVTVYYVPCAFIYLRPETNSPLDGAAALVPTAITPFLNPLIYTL
Chain of human class II OR identified in the library screening (Homo sapiens, UniProt O60403) (O60403 whole entry, the tested form may be a part): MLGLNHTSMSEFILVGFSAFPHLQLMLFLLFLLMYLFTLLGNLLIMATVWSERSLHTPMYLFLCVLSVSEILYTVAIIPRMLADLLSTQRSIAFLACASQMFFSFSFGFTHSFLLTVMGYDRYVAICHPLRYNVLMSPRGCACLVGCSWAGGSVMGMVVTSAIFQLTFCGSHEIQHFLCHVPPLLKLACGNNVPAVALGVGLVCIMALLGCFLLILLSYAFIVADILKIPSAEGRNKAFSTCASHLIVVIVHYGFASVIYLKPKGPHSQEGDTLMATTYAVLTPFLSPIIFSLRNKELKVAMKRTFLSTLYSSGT
Chain of human class II OR identified in the library screening (Homo sapiens, UniProt O76100) (O76100 whole entry, the tested form may be a part): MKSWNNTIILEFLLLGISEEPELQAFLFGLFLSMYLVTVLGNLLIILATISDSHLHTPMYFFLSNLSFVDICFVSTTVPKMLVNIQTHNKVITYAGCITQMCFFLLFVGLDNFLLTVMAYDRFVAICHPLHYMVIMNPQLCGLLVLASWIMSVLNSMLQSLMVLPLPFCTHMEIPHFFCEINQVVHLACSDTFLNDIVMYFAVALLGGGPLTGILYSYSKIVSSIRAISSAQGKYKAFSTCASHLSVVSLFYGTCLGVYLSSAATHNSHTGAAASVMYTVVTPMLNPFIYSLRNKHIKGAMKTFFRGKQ
Chain of human class II OR identified in the library screening (Homo sapiens, UniProt A4D2G3) (A4D2G3 whole entry): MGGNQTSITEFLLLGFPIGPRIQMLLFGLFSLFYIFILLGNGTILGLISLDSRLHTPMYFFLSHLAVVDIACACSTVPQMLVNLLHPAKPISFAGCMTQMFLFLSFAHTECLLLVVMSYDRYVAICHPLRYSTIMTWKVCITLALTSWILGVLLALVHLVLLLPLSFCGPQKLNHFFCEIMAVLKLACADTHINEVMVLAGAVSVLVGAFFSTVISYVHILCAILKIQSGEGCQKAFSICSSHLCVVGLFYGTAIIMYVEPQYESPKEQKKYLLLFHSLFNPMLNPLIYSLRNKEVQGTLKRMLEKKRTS
Chain of human class II OR identified in the library screening (Homo sapiens, UniProt Q15622) (Q15622 whole entry): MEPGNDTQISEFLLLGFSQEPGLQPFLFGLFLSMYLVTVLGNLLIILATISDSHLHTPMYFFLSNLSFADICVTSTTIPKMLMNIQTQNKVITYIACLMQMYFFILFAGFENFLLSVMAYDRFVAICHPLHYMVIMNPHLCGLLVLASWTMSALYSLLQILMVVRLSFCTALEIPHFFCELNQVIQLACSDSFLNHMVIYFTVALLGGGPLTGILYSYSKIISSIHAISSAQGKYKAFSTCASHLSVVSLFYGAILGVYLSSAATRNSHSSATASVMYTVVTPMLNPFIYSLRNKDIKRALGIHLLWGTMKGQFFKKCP
Chain of human class II OR identified in the library screening (Homo sapiens, UniProt A6NM03) (A6NM03 1-292): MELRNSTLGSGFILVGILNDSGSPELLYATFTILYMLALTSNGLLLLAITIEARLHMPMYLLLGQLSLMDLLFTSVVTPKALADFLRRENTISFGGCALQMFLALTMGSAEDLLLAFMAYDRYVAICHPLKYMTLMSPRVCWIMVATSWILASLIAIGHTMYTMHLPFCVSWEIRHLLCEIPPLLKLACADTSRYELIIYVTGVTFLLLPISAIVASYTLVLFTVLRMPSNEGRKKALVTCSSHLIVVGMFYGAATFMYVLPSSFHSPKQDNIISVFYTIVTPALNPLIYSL
Chain of human class II OR identified in the library screening (Homo sapiens, UniProt Q96R48) (Q96R48 whole entry): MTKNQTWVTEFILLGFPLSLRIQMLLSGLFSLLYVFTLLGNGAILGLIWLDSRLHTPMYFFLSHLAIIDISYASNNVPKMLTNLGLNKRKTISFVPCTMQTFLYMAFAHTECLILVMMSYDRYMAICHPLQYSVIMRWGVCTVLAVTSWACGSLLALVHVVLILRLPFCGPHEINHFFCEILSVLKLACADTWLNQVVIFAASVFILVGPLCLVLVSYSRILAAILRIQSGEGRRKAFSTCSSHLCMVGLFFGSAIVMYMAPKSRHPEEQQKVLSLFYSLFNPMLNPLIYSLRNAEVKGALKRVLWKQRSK

Detection threshold; concentration for 2-fold induction, wild-type [1]: no
Detection threshold; concentration for 2-fold induction, wild-type [2]: no
EC50 ([3]; OR7A5, modified C-terminus SEQ ID NO: 221 (SEQ ID NO: 612)): 5.6 µM
EC50 ([3]; OR7A10, modified C-terminus SEQ ID NO: 221 (SEQ ID NO: 610)): 0.16 µM
SMILES: C=C(C)[C@@H]1CC[C@H](C)C2=C(C1)[C@@H](C)CC2=O [Rotundone]
Fold improvement efficacy ([3]; OR7A5, modified C-terminus SEQ ID NO: 221 vs wild-type): 24. fold
Fold improvement efficacy ([3]; OR7A10, modified C-terminus SEQ ID NO: 221 vs wild-type): 5.9 fold

SMILES: CC(CO)C1=C2C(C)(C)C3CCC2(C3)C(C)(C)CC1 (stereo not shown) [Ambermax]
ligand specificity in cells expressing OR7A17 and/or OR7C1 (OR7A17 and OR7C1): specific ligand for OR7C1
Detection threshold; concentration for 2-fold induction (OR7C1 [4]; changed C-term. SEQ ID NO: 86): 0.17 µM
Fold-improvement potency (OR7C1 [4]; changed C-term. vs wild-type): 2.7
Detection threshold; concentration for 2-fold induction (OR7C1 [4]; wild-type): 2.76 µM
Comments on efficacy (OR7C1 [5]): 3.5-fold lower

SMILES: CC/C(C)=C/CC[C@H](C)CCO [(E,S)-3,7-dimethylnon-6-en-1-ol]
Detection threshold; concentration for 2-fold induction, wild-type [6]: no
Detection threshold; concentration for 2-fold induction, changed C-term. [7]: 3.0 µM
EC50 [8]: 34.6 µM
Fold improvement efficacy ([3]; OR1D2, modified C-terminus SEQ ID NO: 221 vs wild-type): 14.9 fold

SMILES: COc1cc(C=O)ccc1O [Vanillin]
EC50 [9]: 15.3 µM

SMILES: O=C(OCc1ccccc1)c1ccccc1O [Benzyl salicylate]
Detection threshold; concentration for 2-fold induction, wild-type [10]: no
Detection threshold; concentration for 2-fold induction, changed C-term. [7]: 1.3 µM
EC50 [11]: 4.5 µM
Fold improvement efficacy ([3]; OR2AG2 (Y28C), modified C-terminus SEQ ID NO: 221 vs wild-type): 10.2 fold

Detection threshold; concentration for 2-fold induction, wild-type [12]: no
Detection threshold; concentration for 2-fold induction, wild-type [13]: no
EC50 ([3]; OR2A5, modified C-terminus SEQ ID NO: 221 (SEQ ID NO: 374)): 18 µM
EC50 ([3]; OR2A25, modified C-terminus SEQ ID NO: 221 (SEQ ID NO: 370)): 11 µM
SMILES: CC(C)=CCC(C)C1CC1(C)CO (stereo not shown) [Rosyfolia]
Fold improvement efficacy ([3]; OR2A5, modified C-terminus SEQ ID NO: 221 vs wild-type): 3.0 fold
Fold improvement efficacy ([3]; OR2A25, modified C-terminus SEQ ID NO: 221 vs wild-type): 7.6 fold

SMILES: SC1CCCC1 [Cyclopentanethiol, reference compound]
Comments on efficacy (OR2T4 [14]): No induction
ligand identification in sulfur odorant screen (OR2T4 [14]; OR2T4 with optimized C-terminus SEQ ID NO: 86): good ligands
Fold-improvement potency (OR2T4 [14]; changed C-term. vs wild-type): >>22
Fold-improvement threshold (OR2T4 [14]; changed C-term. vs wild-type): >>100
EC50 (OR2T4 [15]): > 316 µM

Detection threshold; concentration for 2-fold induction, wild-type [16]: no
Detection threshold; concentration for 2-fold induction, changed C-term. [7]: 108.6 µM
EC50 ([3]; OR10H2, modified C-terminus SEQ ID NO: 221 (SEQ ID NO: 680)): 226 µM
SMILES: CC(C)c1ccc2c(c1)OCC(=O)CO2 [Cascalone]
Fold improvement efficacy ([3]; OR10H2, modified C-terminus SEQ ID NO: 221 vs wild-type): 7.0 fold

SMILES: CC1=C(O)C(=O)OC1C (stereo not shown) [Sotolone]
Detection threshold; concentration for 2-fold induction, wild-type [17]: 2.5 µM
Potency, Fold-improvement ([3]; OR8D1, EC50 modified C-terminus SEQ ID NO: 221 vs wild-type): 2.5 fold
Detection threshold; concentration for 2-fold induction, changed C-term. [3, 23]: 0.48 µM
Fold improvement efficacy [3, 24]: 2.1 fold
Detection threshold; Fold improvement efficacy [3, 24]: 5.2 fold
EC50 [3, 23]: 7.5 µM

SMILES: CC1=C(O)C(=O)C(C)O1 (stereo not shown) [Furaneol]
Detection threshold; concentration for 2-fold induction, wild-type [18]: 30.5 µM
Detection threshold; concentration for 2-fold induction, changed C-term. [7]: 0.3 µM
EC50 [19]: 65.3 µM
EC50 [20]: 8.7 µM
Potency, Fold-improvement ([3]; OR5M3, EC50 modified C-terminus SEQ ID NO: 221 vs wild-type): 7.5 fold
Fold improvement efficacy [3, 25]: 16.8 fold
Detection threshold; Fold improvement efficacy [3, 25]: 100.7 fold

SMILES: CC=Cc1ccc(O)c(OC)c1 [Isoeugenol]
Detection threshold; concentration for 2-fold induction, wild-type [21]: no
Detection threshold; concentration for 2-fold induction, changed C-term. [7]: 1.4 µM
EC50 [22]: 8.4 µM
Fold improvement efficacy ([3]; OR10D3, modified C-terminus SEQ ID NO: 221 vs wild-type): 6.1 fold
